18 compounds from patent publication US9227971B2, “Pyrazolo[1,5-a]pyrimidine compounds as mTOR inhibitors” (Merck Sharp & Dohme Corp., priority 2010, dated 2016) can be followed below.

pIC50: −log10 of the molar value. Read-outs that look alike come from different tables or passages of the source.

The subject of experiment [1] is phosphorylated AKT Ser473 (pAKT S473), mTORC2 activity, PC3 cells. Kind of experiment: mTOR target engagement assay, immunofluorescent cell-based, pAKT S473 readout (mTORC2 activity). In a few lines: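 After blocking, cells were stained overnight at 4 °C with anti-pAKT S473 antibody, then a fluorescent secondary; inhibition was read as reduced fluorescence intensity.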

The subject of experiment [2] is phosphorylated 4E-BP1 Thr37/46 (p4E-BP1 Thr37/46), mTORC1 activity, PC3 cells. Kind of experiment: mTOR target engagement assay, immunofluorescent cell-based, p4E-BP1 Thr37/46 readout (mTORC1 activity). As to conditions: read-out: p4E-BP1 Thr37/46 IC50. In a few lines:
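Cell-based immunofluorescence in PC3 cells: serially diluted compounds (0.25% DMSO, 5% FBS) applied for ninety minutes at 37° C before fixation and overnight 4° C staining of p4E-BP1 Thr37/46. Untreated DMSO wells set maximal phosphorylation; IC50 obtained by logistic fitting.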

Where [3] appears, read: Homo sapiens, PC-3, PC3 cells, compound treatment ninety minutes at 37° C.
[4] abbreviates: Homo sapiens, PC-3, Table 7-8, PC3 cells.
[5] abbreviates: Homo sapiens, PC-3, Table 7-4, PC3 cells.
The mark [6] stands for this setting: Homo sapiens, PC-3, Table 3-1, PC3 cells.
[7] abbreviates: Homo sapiens, PC-3, Table 6-1, PC3 cells.

Regarding `CC(=O)c1c([C@@H]2C[C@H]3CC[C@@H](C2)N3C(=O)c2nnc[nH]2)nc2c(-c3ccc(-c4ccn(C)n4)nc3)cnn2c1N` [Compound 1.1.55, 1-(5-((1R,3s,5S)-8-(4H-1,2,4-triazole-3-carbonyl)-8-azabicyclo[3.2.1]octan-3-yl)-7-amino-3-(6-(1-methyl-1H-pyrazol-3-yl)pyridin-3-yl)pyrazolo[1,5-a]pyrimidin-6-yl)ethanone], the pIC50 in experiment [1] (setting [3]) and in experiment [2] (setting [3]) was 7.00 to 9.00 in each case.

As to `Nc1nnc(C(=O)N2C3CCC2CC(c2nc4c(-c5ccc(-c6ccccc6)nc5)cnn4c(N)c2C2CC2)C3)[nH]1` [Compound 8.104, (5-amino-4H-1,2,4-triazol-3-yl)((1R,3s,5S)-3-(7-amino-6-cyclopropyl-3-(6-phenylpyridin-3-yl)pyrazolo[1,5-a]pyrimidin-5-yl)-8-azabicyclo[3.2.1]octan-8-yl)methanone], the pIC50 in experiment [1] (Homo sapiens, PC-3, PC3 cells) is 7.00 to 9.00; in experiment [2] (Homo sapiens, PC-3, PC3 cells) it was 7.00 to 9.00.

In the case of `CS(=O)(=O)c1c([C@@H]2C[C@H]3CC[C@@H](C2)N3C(=O)CO)nc2c(-c3ccc(C4(O)COC4)nc3)cnn2c1N` [Compound 7.49, 1-((1R,3s,5S)-3-(7-amino-3-(6-(3-hydroxyoxetan-3-yl)pyridin-3-yl)-6-(methylsulfonyl)pyrazolo [1,5-a]pyrimidin-5-yl)-8-azabicyclo[3.2.1]octan-8-yl)-2-hydroxyethanone], the pIC50 in experiment [1] (setting [4]) and in experiment [2] (setting [4]) was 5.00 to 6.00 in each case.

Consider `Nc1c(C2CC2)c([C@@H]2C[C@H]3CC[C@@H](C2)N3C(=O)c2nnc[nH]2)nc2c(-c3cnn(-c4ccccc4)c3)cnn12` [Compound 4.26, ((1R,3s,5S)-3-(7-amino-6-cyclopropyl-3-(1-phenyl-1H-pyrazol-4-yl)pyrazolo[1,5-a]pyrimidin-5-yl)-8-azabicyclo[3.2.1]octan-8-yl)(4H-1,2,4-triazol-3-yl)methanone], for which the pIC50 in experiment [1] (setting [3]) was 7.00 to 9.00; in experiment [2] (setting [3]), 6.00 to 7.00.

Regarding `CC(=O)c1c([C@@H]2C[C@H]3CC[C@@H](C2)N3C(=O)c2nnc[nH]2)nc2c(-c3ccc([C@H](C)O)nc3)cnn2c1N` [Compound 7.34, 1-(5-((1R,3s,5S)-8-(4H-1,2,4-triazole-3-carbonyl)-8-azabicyclo[3.2.1]octan-3-yl)-7-amino-3-(6-((S)-1-hydroxyethyl)pyridin-3-yl)pyrazolo[1,5-a]pyrimidin-6-yl)ethanone], the pIC50 in experiment [1] (setting [5]) and in experiment [2] (setting [5]) was 7.00 to 9.00 in each case.

On to `CC(=O)c1c([C@@H]2C[C@H]3CC[C@@H](C2)N3C(=O)CO)nc2c(-c3ccc(-c4cccc(F)c4)nc3)cnn2c1N` [Compound 1.1.105, 1-((1R,3r,5S)-3-(6-acetyl-7-amino-3-(6-(3-fluorophenyl)pyridin-3-yl)pyrazolo[1,5-a]pyrimidin-5-yl)-8-azabicyclo[3.2.1]octan-8-yl)-2-hydroxyethanone], for which the pIC50 in experiment [1] (setting [3]) and in experiment [2] (setting [3]) was 6.00 to 7.00 in each case.

Turning to `Cc1nnc(C(=O)N2[C@@H]3CC[C@H]2C[C@H](c2nc4c(-c5ccc(-c6ccccc6F)nc5)cnn4c(N)c2S(C)(=O)=O)C3)[nH]1` [Compound 3.133, ((1R,3s,5S)-3-(7-amino-3-(6-(2-fluorophenyl)pyridin-3-yl)-6-(methylsulfonyl)pyrazolo[1,5-a]pyrimidin-5-yl)-8-azabicyclo[3.2.1]octan-8-yl)(5-methyl-4H-1,2,4-triazol-3-yl)methanone], the pIC50 in experiment [1] (setting [6]) and in experiment [2] (setting [6]) was 7.00 to 9.00 in each case.

With `COc1ccc(-c2ncc(-c3cnn4c(N)c(S(C)(=O)=O)c([C@@H]5C[C@H]6CC[C@@H](C5)N6C(=O)c5nnc[nH]5)nc34)cn2)cc1F` [Compound 3.147, ((1R,3s,5S)-3-(7-amino-3-(2-(3-fluoro-4-methoxyphenyl)pyrimidin-5-yl)-6-(methylsulfonyl)pyrazolo[1,5-a]pyrimidin-5-yl)-8-azabicyclo[3.2.1]octan-8-yl)(4H-1,2,4-triazol-3-yl)methanone], the pIC50 in experiment [1] (setting [6]) and in experiment [2] (setting [6]) was 5.00 to 6.00 in each case.

As to `CS(=O)(=O)c1c([C@@H]2C[C@H]3CC[C@@H](C2)N3c2nnc[nH]2)nc2c(-c3ccc(-c4ccccc4)nc3)cnn2c1N` [Compound 3.21, 5-((1R,3s,5S)-8-(4H-1,2,4-triazol-3-yl)-8-azabicyclo[3.2.1]octan-3-yl)-6-(methylsulfonyl)-3-(6-phenylpyridin-3-yl)pyrazolo[1,5-a]pyrimidin-7-amine], the pIC50 is 5.00 to 6.00 in experiment [1] (Table 3-1, PC3 cells) and 5.00 to 6.00 in experiment [2] (Table 3-1, PC3 cells).

For the compound `CC(=O)c1c([C@@H]2C[C@H]3CC[C@@H](C2)N3C(=O)c2nnc[nH]2)nc2c(-c3ccc([C@@H](C)O)cc3)cnn2c1N` [Compound 7.21, 1-(5-((1R,3s,5S)-8-(4H-1,2,4-triazole-3-carbonyl)-8-azabicyclo[3.2.1]octan-3-yl)-7-amino-3-(4-((R)-1-hydroxyethyl)phenyl)pyrazolo[1,5-a]pyrimidin-6-yl)ethanone], the pIC50 in experiment [1] (setting [3]) and in experiment [2] (setting [3]) was 7.00 to 9.00 in each case.

As for `CC(=O)c1c([C@@H]2C[C@H]3CC[C@@H](C2)N3C(=O)CO)nc2c(-c3ccc(-c4ccn(C)n4)nc3)cnn2c1N` [Compound 1.1.60, 1-((1R,3s,5S)-3-(6-acetyl-7-amino-3-(6-(1-methyl-1H-pyrazol-3-yl)pyridin-3-yl)pyrazolo[1,5-a]pyrimidin-5-yl)-8-azabicyclo[3.2.1]octan-8-yl)-2-hydroxyethanone], the pIC50 in experiment [1] (setting [3]) and in experiment [2] (setting [3]) was 6.00 to 7.00 throughout.

For the compound `CC(=O)c1c([C@@H]2C[C@H]3CC[C@@H](C2)N3C(=O)c2nnc[nH]2)nc2c(-c3ccc(-c4ncc(C)[nH]4)c(F)c3)cnn2c1N` [Compound 6.39, 1-(5-((1R,3s,5S)-8-(4H-1,2,4-triazole-3-carbonyl)-8-azabicyclo[3.2.1]octan-3-yl)-7-amino-3-(3-fluoro-4-(5-methyl-1H-imidazol-2-yl)phenyl)pyrazolo[1,5-a]pyrimidin-6-yl)ethanone], the pIC50 in experiment [1] (setting [7]) was 7.00 to 9.00; in experiment [2] (setting [7]), 6.00 to 7.00.

Turning to `Cc1nnc(C(=O)N2[C@@H]3CC[C@H]2C[C@H](c2nc4c(-c5ccc(C6(O)CCC6)nc5)cnn4c(N)c2C2CC2)C3)[nH]1` [Compound 7.71, ((1R,3s,5S)-3-(7-amino-6-cyclopropyl-3-(6-(1-hydroxycyclobutyl)pyridin-3-yl)pyrazolo[1,5-a]pyrimidin-5-yl)-8-azabicyclo[3.2.1]octan-8-yl)(5-methyl-4H-1,2,4-triazol-3-yl)methanone], the pIC50 in experiment [1] (Homo sapiens, PC-3, PC3 cells) is 6.00 to 7.00; in experiment [2] (Homo sapiens, PC-3, PC3 cells) it was 6.00 to 7.00.

Regarding `CS(=O)(=O)c1c([C@@H]2C[C@H]3CC[C@@H](C2)N3C(=O)CO)nc2c(-c3ccc(-c4ncc[nH]4)nc3)cnn2c1N` [Compound 6.6, 1-((1R,3s,5S)-3-(3-(6-(1H-imidazol-2-yl)pyridin-3-yl)-7-amino-6-(methylsulfonyl)pyrazolo [1,5-a]pyrimidin-5-yl)-8-azabicyclo[3.2.1]octan-8-yl)-2-hydroxyethanone], the pIC50 in experiment [1] (setting [7]) and in experiment [2] (setting [7]) was 7.00 to 9.00 each time.

As to `CS(=O)(=O)c1c([C@@H]2C[C@H]3CC[C@@H](C2)N3C(=O)c2nnc[nH]2)nc2c(-c3ccc(CO)c(F)c3)cnn2c1N` [Compound 8.42, ((1R,3s,5S)-3-(7-amino-3-(3-fluoro-4-(hydroxymethyl)phenyl)-6-(methylsulfonyl)pyrazolo[1,5-a]pyrimidin-5-yl)-8-azabicyclo[3.2.1]octan-8-yl)(4H-1,2,4-triazol-3-yl)methanone], the pIC50 is 7.00 to 9.00 in experiment [1] (Homo sapiens, PC-3, PC3 cells) and 7.00 to 9.00 in experiment [2] (Homo sapiens, PC-3, PC3 cells).

Take `CS(=O)(=O)c1c([C@@H]2C[C@H]3CC[C@@H](C2)N3C(=O)c2cnn[nH]2)nc2c(-c3ccc(C4(O)CCC4)nc3)cnn2c1N` [Compound 7.30, ((1R,3s,5S)-3-(7-amino-3-(6-(1-hydroxycyclobutyl)pyridin-3-yl)-6-(methylsulfonyl)pyrazolo[1,5-a]pyrimidin-5-yl)-8-azabicyclo[3.2.1]octan-8-yl)(1H-1,2,3-triazol-5-yl)methanone]: the pIC50 in experiment [1] (Table 7-2, PC3 cells) was 6.00 to 7.00; in experiment [2] (Table 7-2, PC3 cells) it was 6.00 to 7.00.

On to `COCc1cc(-c2ccc(-c3cnn4c(N)c(C(C)=O)c([C@@H]5C[C@H]6CC[C@@H](C5)N6C(=O)CO)nc34)cn2)ccc1OC` [Compound 1.1.44, 1-((1R,3s,5S)-3-(6-acetyl-7-amino-3-(6-(4-methoxy-3-(methoxymethyl)phenyl)pyridin-3-yl)pyrazolo[1,5-a]pyrimidin-5-yl)-8-azabicyclo[3.2.1]octan-8-yl)-2-hydroxyethanone], for which the figures for the pIC50 in experiment [1] (setting [3]) and in experiment [2] (setting [3]) were 7.00 to 9.00 and 6.00 to 7.00, respectively.

Regarding `Cn1cc2cc(-c3ccc(-c4cnn5c(N)c(S(C)(=O)=O)c([C@@H]6C[C@H]7CC[C@@H](C6)N7C(=O)c6nnc[nH]6)nc45)cn3)ccc2n1` [Compound 3.57, ((1R,3s,5S)-3-(7-amino-3-(6-(2-methyl-2H-indazol-5-yl)pyridin-3-yl)-6-(methylsulfonyl)pyrazolo[1,5-a]pyrimidin-5-yl)-8-azabicyclo[3.2.1]octan-8-yl)(4H-1,2,4-triazol-3-yl)methanone], the pIC50 was 7.00 to 9.00 in experiment [1] (Table 3-1, PC3 cells) and 7.00 to 9.00 in experiment [2] (Table 3-1, PC3 cells).
